Patent publication US20250122174A1 (Shenzhen Yuanli Shenwan Innovative Medicine Co., Ltd., priority 2022, published 2025)

Each compound was assayed against HPK1 (Homo sapiens (Human), UniProt Q92918) (assay: HPK1 Inhibition Assay (ADP-Glo kinase assay)). Conditions: ATP 10 μM.
Assay type: biochemical
Procedure, shortened: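 ADP-Glo luminescence read-out after 1 h room-temperature kinase reaction with 10 μM ATP and 0.1 μg/ml MBP. Recombinant human HPK1 at 7.5 ng/μl; buffer 40 mM Tris pH 7.5, 20 mM MgCl2. Compounds serially diluted 5-fold over 10 points from 10 mM DMSO stock.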

Sequence of HPK1 (Q92918 1-346 limits assumed): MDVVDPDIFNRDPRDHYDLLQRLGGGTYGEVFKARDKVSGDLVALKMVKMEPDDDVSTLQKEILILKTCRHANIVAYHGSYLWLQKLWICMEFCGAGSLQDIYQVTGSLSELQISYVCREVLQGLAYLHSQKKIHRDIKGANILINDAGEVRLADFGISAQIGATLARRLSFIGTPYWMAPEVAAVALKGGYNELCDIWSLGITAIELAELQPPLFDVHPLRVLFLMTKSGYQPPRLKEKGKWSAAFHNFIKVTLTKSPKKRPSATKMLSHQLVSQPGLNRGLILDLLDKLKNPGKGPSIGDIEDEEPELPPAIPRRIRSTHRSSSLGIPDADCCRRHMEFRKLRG

IC50, < 100 nM:
C[C@@H]1CN(c2c(NC(=O)c3ccc(=O)n(-c4c(F)cccc4F)n3)ccc3nn(C45CC(C(F)(F)F)(C4)C5)cc23)C[C@@H]1N [Example 319, N-(4-((3R,4R)-3-amino-4-methylpyrrolidin-1-yl)-2-(3-(trifluoromethyl)bicyclo[1.1.1]pentan-1-yl)-2H-indazol-5-yl)-1-(2,6-difluorophenyl)-6-oxo-1,6-dihydropyridazine-3-carboxamide]
C[C@H]1CN(c2c(NC(=O)c3ccc(=O)n(-c4c(F)cccc4F)n3)ccc3nn(C45CC(C4)C5)cc23)C[C@@H]1N [Example 320, N-(4-((3R,4S)-3-amino-4-methylpyrrolidin-1-yl)-2-(bicyclo[1.1.1]pentan-1-yl)-2H-indazol-5-yl)-1-(2,6-difluorophenyl)-6-oxo-1,6-dihydropyridazine-3-carboxamide]
C[C@H]1CN(c2c(NC(=O)c3ccc(=O)n(-c4c(F)cccc4F)n3)ccc3nn(C4(C)CCC4)cc23)C[C@@H]1N [Example 321, N-(4-((3R,4S)-3-amino-4-methylpyrrolidin-1-yl)-2-(1-methylcyclobutyl)-2H-indazol-5-yl)-1-(2,6-difluorophenyl)-6-oxo-1,6-dihydropyridazine-3-carboxamide]
CC1(C)CN(c2c(NC(=O)c3ccc(=O)n(-c4c(F)cccc4F)n3)ccc3nn([C@@H]4CCOC4)cc23)C[C@@H]1N [Example 322, N-(4-((R)-4-amino-3,3-dimethylpyrrolidin-1-yl)-2-((R)-tetrahydrofuran-3-yl)-2H-indazol-5-yl)-1-(2,6-difluorophenyl)-6-oxo-1,6-dihydropyridazine-3-carboxamide]
CC1(C)CN(c2c(NC(=O)c3ccc(=O)n(-c4c(F)cccc4F)n3)ccc3nn([C@@H]4CCOC4)cc23)C[C@H]1N [Example 323, N-(4-((S)-4-amino-3,3-dimethylpyrrolidin-1-yl)-2-((R)-tetrahydrofuran-3-yl)-2H-indazol-5-yl)-1-(2,6-difluorophenyl)-6-oxo-1,6-dihydropyridazine-3-carboxamide]
CC1(C)CN(c2c(NC(=O)c3ccc(=O)n(-c4c(F)cccc4F)n3)ccc3nn([C@H]4CCOC4)cc23)C[C@@H]1N [Example 324, N-(4-((R)-4-amino-3,3-dimethylpyrrolidin-1-yl)-2-((S)-tetrahydrofuran-3-yl)-2H-indazol-5-yl)-1-(2,6-difluorophenyl)-6-oxo-1,6-dihydropyridazine-3-carboxamide]
CC1(C)CN(c2c(NC(=O)c3ccc(=O)n(-c4c(F)cccc4F)n3)ccc3nn([C@H]4CCOC4)cc23)C[C@H]1N [Example 325, N-(4-((S)-4-amino-3,3-dimethylpyrrolidin-1-yl)-2-((S)-tetrahydrofuran-3-yl)-2H-indazol-5-yl)-1-(2,6-difluorophenyl)-6-oxo-1,6-dihydropyridazine-3-carboxamide]
C[C@H]1CN(c2c(NC(=O)c3ccc(=O)n(-c4c(F)cccc4F)n3)ccc3nn([C@@H]4CCOC4)cc23)C[C@@H]1N [Example 326, N-(4-((3R,4S)-3-amino-4-methylpyrrolidin-1-yl)-2-((R)-tetrahydrofuran-3-yl)-2H-indazol-5-yl)-1-(2,6-difluorophenyl)-6-oxo-1,6-dihydropyridazine-3-carboxamide]
C[C@H]1CN(c2c(NC(=O)c3ccc(=O)n(-c4c(F)cccc4F)n3)ccc3nn([C@H]4CCOC4)cc23)C[C@@H]1N [Example 327, N-(4-((3R,4S)-3-amino-4-methylpyrrolidin-1-yl)-2-((S)-tetrahydrofuran-3-yl)-2H-indazol-5-yl)-1-(2,6-difluorophenyl)-6-oxo-1,6-dihydropyridazine-3-carboxamide]
COCCn1cc2c(N3CC[C@@H](N)C3)c(NC(=O)c3ccc(=O)n(-c4c(F)cccc4F)n3)ccc2n1 [Example 328, (R)-N-(4-(3-aminopyrrolidin-1-yl)-2-(2-methoxyethyl)-2H-indazol-5-yl)-1-(2,6-difluorophenyl)-6-oxo-1,6-dihydropyridazine-3-carboxamide]
CCn1cc2c(N3CC[C@@H](N)C3)c(NC(=O)c3ccc(=O)n(-c4c(F)cccc4F)n3)ccc2n1 [Example 329, (R)-N-(4-(3-aminopyrrolidin-1-yl)-2-ethyl-2H-indazol-5-yl)-1-(2,6-difluorophenyl)-6-oxo-1,6-dihydropyridazine-3-carboxamide]
N[C@@H]1CCN(c2c(NC(=O)c3ccc(=O)n(-c4c(F)cccc4F)n3)ccc3nn(CC4CC4)cc23)C1 [Example 330, (R)-N-(4-(3-aminopyrrolidin-1-yl)-2-(cyclopropylmethyl)-2H-indazol-5-yl)-1-(2,6-difluorophenyl)-6-oxo-1,6-dihydropyridazine-3-carboxamide]
CC(C)Cn1cc2c(N3CC[C@@H](N)C3)c(NC(=O)c3ccc(=O)n(-c4c(F)cccc4F)n3)ccc2n1 [Example 331, (R)-N-(4-(3-aminopyrrolidin-1-yl)-2-isobutyl-2H-indazol-5-yl)-1-(2,6-difluorophenyl)-6-oxo-1,6-dihydropyridazine-3-carboxamide]
C[C@@H]1CN(c2c(NC(=O)c3ccc(=O)n(-c4c(F)cccc4F)n3)ccc3nn(C4CCC(F)(F)CC4)cc23)C[C@@H]1N [Example 332, N-(4-((3R,4R)-3-amino-4-methylpyrrolidin-1-yl)-2-(4,4-difluorocyclohexyl)-2H-indazol-5-yl)-1-(2,6-difluorophenyl)-6-oxo-1,6-dihydropyridazine-3-carboxamide]
C[C@@H]1CN(c2c(NC(=O)c3ccc(=O)n(-c4c(F)cccc4F)n3)ccc3nn(C4CCCC4)cc23)C[C@@H]1N [Example 333, N-(4-((3R,4R)-3-amino-4-methylpyrrolidin-1-yl)-2-cyclopentyl-2H-indazol-5-yl)-1-(2,6-difluorophenyl)-6-oxo-1,6-dihydropyridazine-3-carboxamide]
CC1(C)CN(c2c(NC(=O)c3ccc(=O)n(-c4c(F)cccc4F)n3)ccc3nn(C4CC4)cc23)C[C@@H]1N [Example 334, (R)-N-(4-(4-amino-3,3-dimethylpyrrolidin-1-yl)-2-cyclopropyl-2H-indazol-5-yl)-1-(2,6-difluorophenyl)-6-oxo-1,6-dihydropyridazine-3-carboxamide]
CC1(C)CN(c2c(NC(=O)c3ccc(=O)n(-c4c(F)cccc4F)n3)ccc3nn(C4CC4)cc23)C[C@H]1N [Example 335, (S)-N-(4-(4-amino-3,3-dimethylpyrrolidin-1-yl)-2-cyclopropyl-2H-indazol-5-yl)-1-(2,6-difluorophenyl)-6-oxo-1,6-dihydropyridazine-3-carboxamide]
N[C@H]1CN(c2c(NC(=O)c3ccc(=O)n(-c4c(F)cccc4F)n3)ccc3nn(C4CC4)cc23)CC12CC2 [Example 336, (R)-N-(4-(7-amino-5-azaspiro[2.4]heptan-5-yl)-2-cyclopropyl-2H-indazol-5-yl)-1-(2,6-difluorophenyl)-6-oxo-1,6-dihydropyridazine-3-carboxamide]
N[C@@H]1CCN(c2c(NC(=O)c3ccc(=O)n(-c4c(F)cccc4F)n3)ccc3nn(C4CCOCC4)cc23)C1 [Example 337, (R)-N-(4-(3-aminopyrrolidin-1-yl)-2-(tetrahydro-2H-pyran-4-yl)-2H-indazol-5-yl)-1-(2,6-difluorophenyl)-6-oxo-1,6-dihydropyridazine-3-carboxamide]
N[C@@H]1CCN(c2c(NC(=O)c3ccc(=O)n(-c4c(F)cccc4F)n3)ccc3nn(CC(F)(F)F)cc23)C1 [Example 338, (R)-N-(4-(3-aminopyrrolidin-1-yl)-2-(2,2,2-trifluoroethyl)-2H-indazol-5-yl)-1-(2,6-difluorophenyl)-6-oxo-1,6-dihydropyridazine-3-carboxamide]
[2H]C([2H])([2H])C(n1cc2c(N3C[C@H](N)C4(CC4)C3)c(NC(=O)c3ccc(=O)n(-c4c(F)cccc4F)n3)ccc2n1)C([2H])([2H])[2H] [Example 339]
CC(C)n1nnc2c(N3C[C@H](N)C4(CC4)C3)c(NC(=O)c3ccc(=O)n(-c4c(F)cccc4F)n3)ccc21 [Example 340, 1-(2,6-difluorophenyl)-N-{4-[(7R)-7-amino-5-azaspiro[2.4]heptan-5-yl]-1-(prop-2-yl)benzo[d][1,2,3]triazol-5-yl}-6-oxo-1,2-diazine-3-carboxamide]
CC(C)n1nnc2c(N3C[C@@H](C)[C@@H](N)C3)c(NC(=O)c3ccc(=O)n(-c4c(F)cccc4F)n3)ccc21 [Example 341, N-(4-((3R,4R)-3-amino-4-methylpyrrolidin-1-yl)-1-isopropyl-1H-benzo[d][1,2,3]triazol-5-yl)-1-(2,6-difluorophenyl)-6-oxo-1,6-dihydropyridazine-3-carboxamide]
N#Cc1ccncc1-c1ccc(NC(=O)c2ccc(=O)n(-c3c(F)cccc3F)n2)c(N2CCNCC2)c1 [Example 342, N-(4-(4-cyanopyridin-3-yl)-2-(piperazin-1-yl)phenyl)-1-(2,6-difluorophenyl)-6-oxo-1,6-dihydropyridazine-3-carboxamide]
N#Cc1ccncc1-c1ccc(NC(=O)c2ccc(=O)n(-c3c(F)cccc3F)n2)c(N2CC[C@@H](N)C2)c1 [Example 343, (R)-N-(2-(3-aminopyrrolidin-1-yl)-4-(4-cyanopyridin-3-yl)phenyl)-1-(2,6-difluorophenyl)-6-oxo-1,6-dihydropyridazine-3-carboxamide]
N#Cc1ccncc1-c1ccc(NC(=O)c2ccc(=O)n(-c3c(F)cccc3F)n2)c(N2CC[C@H](N)C2)c1 [Example 344, (S)-N-(2-(3-aminopyrrolidin-1-yl)-4-(4-cyanopyridin-3-yl)phenyl)-1-(2,6-difluorophenyl)-6-oxo-1,6-dihydropyridazine-3-carboxamide]
N#Cc1ccncc1-c1ccc(NC(=O)c2ccc(=O)n(-c3c(F)cccc3F)n2)c(N2CCC[C@@H](N)C2)c1 [Example 345, (R)-N-(2-(3-aminopiperidin-1-yl)-4-(4-cyanopyridin-3-yl)phenyl)-1-(2,6-difluorophenyl)-6-oxo-1,6-dihydropyridazine-3-carboxamide]
